Among the data in ChEMBL document CHEMBL1128647, “Novel open-ring analogues of N5,N10-methylenetetrahydrofolic acid with selective activity against brain tumor” (1995) are GI50 values, retold here.

Usually GI50 stands for the concentration at which growth is held to half of that of the control. A low value points to more potent growth inhibition.

Assay type in all cases: functional
The test system of experiment [1] is Colon cancer cell line. The experiment in a line: Cytotoxic activity against human colon cancer cell line.
For experiment [2], the system named is Lung cancer cell line. Description: Cytotoxic activity against human lung cancer cell line.
The subject of experiment [3] is Renal cancer cell line. The experiment in a line: Cytotoxic activity against human renal cancer cell line.
In experiment [4] the test system is Breast cancer cell line. The experiment in a line: Cytotoxic activity against human breast cancer cell line.
In experiment [5] the test system is Prostatic carcinoma cell. The experiment in a line: Cytotoxic activity against human prostate cancer cell line.
In experiment [6] the test system is Ovarian cancer cell line. The experiment in a line: Cytotoxic activity against human ovarian cancer cell line.
Experiment [7] concerns SNB-75. Description: Cytotoxic activity against human CNS SNB-75 cancer cell line.
Experiment [8] relates to U-251. Description: Cytotoxic activity against human CNS U251 cancer cell line.

As for `Cc1nc(N)nc(O)c1N1CCN(c2ccc(C#N)cc2)CC1`, the GI50 in experiment [1] is above 0.0001 µM; in experiment [2], above 100 µM; in experiment [3] it was above 100 µM; in experiment [4] it was above 0.0001 µM; in experiment [5], above 0.0001 µM; in experiment [6] it was 93 µM. This compound returned a GI50 in experiment [7] of 0.04 µM.
With `CCOC(=O)CCC(NC(=O)c1ccc(N2CCN(c3c(C)nc(N)nc3O)CC2)cc1)C(=O)OCC` (centres undefined), the GI50 in experiment [1] is above 100 µM; in experiment [2] it was above 100 µM; in experiment [3], above 100 µM; in experiment [4] it was above 100 µM; in experiment [5], above 100 µM; in experiment [6], above 0.0001 µM. In experiment [7], the GI50 is below 0.01 µM.
`Cc1nc(N)nc(O)c1N1CCN(c2ccc(S(N)(=O)=O)cc2)CC1`: the GI50 was above 100 µM in experiment [1]; above 0.0001 µM in experiment [2]; above 100 µM in experiment [3]; above 100 µM in experiment [4]; above 100 µM in experiment [5]; above 100 µM in experiment [6]. In experiment [7], the GI50 was found to be 0.1 µM.
Take `Cc1nc(N)nc(O)c1N1CCN(c2ccc(C(=O)NC(CCC(=O)O)C(=O)O)cc2)CC1` (centres undefined): the 50% growth inhibitory concentration (GI50) is above 100 µM in experiment [1]; above 100 µM in experiment [2]; above 0.0001 µM in experiment [3]; above 100 µM in experiment [4]; above 100 µM in experiment [5]; above 100 µM in experiment [6]. Besides, the GI50 in experiment [7] is below 0.01 µM.
In the case of `Cc1nc(N)nc(O)c1N1CCN(c2ccc(S(=O)(=O)N(Cc3ccccc3)Cc3ccccc3)cc2)CC1`, the GI50 is 55 µM in experiment [1]; 4.8 µM in experiment [2]; 3.1 µM in experiment [3]; 3.68 µM in experiment [8]; 2.1 µM in experiment [4]; 1.9 µM in experiment [5]. The same compound yielded a GI50 in experiment [6] of 0.7 µM.
For the compound `Cc1nc(N)nc(O)c1N1CCN(c2ccc([N+](=O)[O-])cc2)CC1`, the GI50 in experiment [1], in experiment [2], in experiment [3], in experiment [4], in experiment [5] and in experiment [6] was above 100 µM each time. For the same compound, in experiment [7], the GI50 was below 0.01 µM.
On to `Cc1nc(N)nc(O)c1N1CCN(c2ccc(C(=O)O)cc2)CC1`, for which the GI50 is above 100 µM in experiment [1]; above 100 µM in experiment [2]; 1.39 µM in experiment [3]; above 100 µM in experiment [4]; above 100 µM in experiment [5]; above 100 µM in experiment [6]. Also, in experiment [7], the GI50 was above 100 µM.
